Results reported in ChEMBL document CHEMBL5223127, “Fragment-based discovery of novel phenyltriazolyl derivatives as allosteric type-I1/2 ALK inhibitors with promising antitumor effects” (Bioorg Med Chem Lett, 2022).

test system: NCI-H2228; assay: Antiproliferative activity against human NCI-H2228 cells by MTT assay; settings: not given

SMILES | IC50 [nM]
CN1CCN(c2ccc(NCc3cn(-c4cccc(NC(=O)c5cc(F)cc(F)c5)c4)nn3)cc2C(=O)N2CCCC2)CC1 | 362
O=C(Nc1cccc(-n2cc(CNc3ccc(NCCO)c(C(=O)N4CCCCC4)c3)nn2)c1)c1cc(F)cc(F)c1 | 2520
O=C(Nc1cccc(-n2cc(CNc3ccc(N4CCC(O)CC4)c(C(=O)N4CCOCC4)c3)nn2)c1)c1cc(F)cc(F)c1 | 1860
O=C(Nc1cccc(-n2cc(CNc3ccc(N4CCCCC4)c(C(=O)N4CCCC4)c3)nn2)c1)c1cc(F)cc(F)c1 | 991
CN1CCN(c2ccc(NCc3cn(-c4cccc(NC(=O)c5cc(F)cc(F)c5)c4)nn3)cc2C(=O)N2CCOCC2)CC1 | 1980
O=C(Nc1cccc(-n2cc(CNc3ccc(N4CCCCC4)c(C(=O)N4CCCCC4)c3)nn2)c1)c1cc(F)cc(F)c1 | 1020
CC1CCN(c2ccc(NCc3cn(-c4cccc(NC(=O)c5cc(F)cc(F)c5)c4)nn3)cc2C(=O)N2CCOCC2)CC1 | > 10000
CC1CCN(c2ccc(NCc3cn(-c4cccc(NC(=O)c5cc(F)cc(F)c5)c4)nn3)cc2C(=O)N2CCCCC2)CC1 | 1030
CN1CCN(c2ccc(NCc3cn(-c4cccc(NC(=O)c5cc(F)cc(F)c5)c4)nn3)cc2C(=O)N2CCCCC2)CC1 | 387
CN(C)c1ccc(NCc2cn(-c3cccc(NC(=O)c4cc(F)cc(F)c4)c3)nn2)cc1C(=O)N1CCCCC1 | 2800
CN(C)C(=O)c1cc(NCc2cn(-c3cccc(NC(=O)c4cc(F)cc(F)c4)c3)nn2)ccc1N1CCCCC1 | 760
CN(C)C(=O)c1cc(NCc2cn(-c3cccc(NC(=O)c4cc(F)cc(F)c4)c3)nn2)ccc1N1CCC(O)CC1 | 198
CN(C)c1ccc(NCc2cn(-c3cccc(NC(=O)c4cc(F)cc(F)c4)c3)nn2)cc1C(=O)N1CCCC1 | 2690
O=C(Nc1cccc(-n2cc(CNc3ccc(NCCO)c(C(=O)N4CCOCC4)c3)nn2)c1)c1cc(F)cc(F)c1 | 6940

test system: A549; assay: cells; settings: Homo sapiens
Description: Antiproliferative activity against human A549 cells by MTT assay

SMILES | IC50 [µM]
CN1CCN(c2ccc(NCc3cn(-c4cccc(NC(=O)c5cc(F)cc(F)c5)c4)nn3)cc2C(=O)N2CCCC2)CC1 | > 10
O=C(Nc1cccc(-n2cc(CNc3ccc(NCCO)c(C(=O)N4CCCCC4)c3)nn2)c1)c1cc(F)cc(F)c1 | > 10
O=C(Nc1cccc(-n2cc(CNc3ccc(N4CCC(O)CC4)c(C(=O)N4CCOCC4)c3)nn2)c1)c1cc(F)cc(F)c1 | > 10
O=C(Nc1cccc(-n2cc(CNc3ccc(N4CCCCC4)c(C(=O)N4CCCC4)c3)nn2)c1)c1cc(F)cc(F)c1 | > 10
CN1CCN(c2ccc(NCc3cn(-c4cccc(NC(=O)c5cc(F)cc(F)c5)c4)nn3)cc2C(=O)N2CCOCC2)CC1 | > 10
O=C(Nc1cccc(-n2cc(CNc3ccc(N4CCCCC4)c(C(=O)N4CCCCC4)c3)nn2)c1)c1cc(F)cc(F)c1 | > 10
CC1CCN(c2ccc(NCc3cn(-c4cccc(NC(=O)c5cc(F)cc(F)c5)c4)nn3)cc2C(=O)N2CCOCC2)CC1 | > 10
CC1CCN(c2ccc(NCc3cn(-c4cccc(NC(=O)c5cc(F)cc(F)c5)c4)nn3)cc2C(=O)N2CCCCC2)CC1 | > 10
CN1CCN(c2ccc(NCc3cn(-c4cccc(NC(=O)c5cc(F)cc(F)c5)c4)nn3)cc2C(=O)N2CCCCC2)CC1 | > 10
CN(C)c1ccc(NCc2cn(-c3cccc(NC(=O)c4cc(F)cc(F)c4)c3)nn2)cc1C(=O)N1CCCCC1 | > 10
CN(C)C(=O)c1cc(NCc2cn(-c3cccc(NC(=O)c4cc(F)cc(F)c4)c3)nn2)ccc1N1CCCCC1 | 4.12
CN(C)C(=O)c1cc(NCc2cn(-c3cccc(NC(=O)c4cc(F)cc(F)c4)c3)nn2)ccc1N1CCC(O)CC1 | 2.05
CN(C)c1ccc(NCc2cn(-c3cccc(NC(=O)c4cc(F)cc(F)c4)c3)nn2)cc1C(=O)N1CCCC1 | > 10
O=C(Nc1cccc(-n2cc(CNc3ccc(NCCO)c(C(=O)N4CCOCC4)c3)nn2)c1)c1cc(F)cc(F)c1 | > 10

test system: KARPAS-299; assay: Antiproliferative activity against human KARPAS-299 cells by MTT assay; settings: not given

SMILES | IC50 [nM]
CN1CCN(c2ccc(NCc3cn(-c4cccc(NC(=O)c5cc(F)cc(F)c5)c4)nn3)cc2C(=O)N2CCCC2)CC1 | 79
O=C(Nc1cccc(-n2cc(CNc3ccc(NCCO)c(C(=O)N4CCCCC4)c3)nn2)c1)c1cc(F)cc(F)c1 | 602
O=C(Nc1cccc(-n2cc(CNc3ccc(N4CCC(O)CC4)c(C(=O)N4CCOCC4)c3)nn2)c1)c1cc(F)cc(F)c1 | 425
O=C(Nc1cccc(-n2cc(CNc3ccc(N4CCCCC4)c(C(=O)N4CCCC4)c3)nn2)c1)c1cc(F)cc(F)c1 | 232
CN1CCN(c2ccc(NCc3cn(-c4cccc(NC(=O)c5cc(F)cc(F)c5)c4)nn3)cc2C(=O)N2CCOCC2)CC1 | 452
O=C(Nc1cccc(-n2cc(CNc3ccc(N4CCCCC4)c(C(=O)N4CCCCC4)c3)nn2)c1)c1cc(F)cc(F)c1 | 272
CC1CCN(c2ccc(NCc3cn(-c4cccc(NC(=O)c5cc(F)cc(F)c5)c4)nn3)cc2C(=O)N2CCOCC2)CC1 | 2310
CC1CCN(c2ccc(NCc3cn(-c4cccc(NC(=O)c5cc(F)cc(F)c5)c4)nn3)cc2C(=O)N2CCCCC2)CC1 | 240
CN1CCN(c2ccc(NCc3cn(-c4cccc(NC(=O)c5cc(F)cc(F)c5)c4)nn3)cc2C(=O)N2CCCCC2)CC1 | 91
CN(C)c1ccc(NCc2cn(-c3cccc(NC(=O)c4cc(F)cc(F)c4)c3)nn2)cc1C(=O)N1CCCCC1 | 589
CN(C)C(=O)c1cc(NCc2cn(-c3cccc(NC(=O)c4cc(F)cc(F)c4)c3)nn2)ccc1N1CCCCC1 | 157
CN(C)C(=O)c1cc(NCc2cn(-c3cccc(NC(=O)c4cc(F)cc(F)c4)c3)nn2)ccc1N1CCC(O)CC1 | 62
CN(C)c1ccc(NCc2cn(-c3cccc(NC(=O)c4cc(F)cc(F)c4)c3)nn2)cc1C(=O)N1CCCC1 | 511
O=C(Nc1cccc(-n2cc(CNc3ccc(NCCO)c(C(=O)N4CCOCC4)c3)nn2)c1)c1cc(F)cc(F)c1 | 1540
